The values that follow come from PubChem BioAssay AID743370.

Calls of active or inactive are those of the source. The rule behind the calls is not given here.

The target in the assay is Acetylcholine receptor subunit alpha (Tetronarce californica) + Acetylcholine receptor subunit beta (Tetronarce californica) + Acetylcholine receptor subunit gamma (Tetronarce californica) + Acetylcholine receptor subunit delta (Tetronarce californica) (UniProt P02710+P02712+P02714+P02718). Kind of assay: Torpedo nAChR binders, biochemical, Torpedo californica electric organ membranes, [125I]alpha-bungarotoxin (AID 743370). The conditions noted are these: [125I]alpha-bungarotoxin displacement.
Sequence of Acetylcholine receptor subunit alpha (Tetronarce californica) + Acetylcholine receptor subunit beta (Tetronarce californica) + Acetylcholine receptor subunit gamma (Tetronarce californica) + Acetylcholine receptor subunit delta (Tetronarce californica) (P02710 whole entry, looked up): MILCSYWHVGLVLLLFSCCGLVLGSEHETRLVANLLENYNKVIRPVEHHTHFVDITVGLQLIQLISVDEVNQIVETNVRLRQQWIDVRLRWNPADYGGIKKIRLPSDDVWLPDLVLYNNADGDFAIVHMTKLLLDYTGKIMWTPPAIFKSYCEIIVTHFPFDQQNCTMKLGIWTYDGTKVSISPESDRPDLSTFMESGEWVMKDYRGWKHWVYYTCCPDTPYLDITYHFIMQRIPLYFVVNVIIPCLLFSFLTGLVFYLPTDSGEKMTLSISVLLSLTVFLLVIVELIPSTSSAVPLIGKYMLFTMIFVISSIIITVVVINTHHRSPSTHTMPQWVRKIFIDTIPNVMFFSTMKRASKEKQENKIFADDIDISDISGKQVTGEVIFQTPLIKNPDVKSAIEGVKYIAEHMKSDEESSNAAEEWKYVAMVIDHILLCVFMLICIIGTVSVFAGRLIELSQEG
Sequence of Acetylcholine receptor subunit alpha (Tetronarce californica) + Acetylcholine receptor subunit beta (Tetronarce californica) + Acetylcholine receptor subunit gamma (Tetronarce californica) + Acetylcholine receptor subunit delta (Tetronarce californica) (P02712 whole entry, looked up): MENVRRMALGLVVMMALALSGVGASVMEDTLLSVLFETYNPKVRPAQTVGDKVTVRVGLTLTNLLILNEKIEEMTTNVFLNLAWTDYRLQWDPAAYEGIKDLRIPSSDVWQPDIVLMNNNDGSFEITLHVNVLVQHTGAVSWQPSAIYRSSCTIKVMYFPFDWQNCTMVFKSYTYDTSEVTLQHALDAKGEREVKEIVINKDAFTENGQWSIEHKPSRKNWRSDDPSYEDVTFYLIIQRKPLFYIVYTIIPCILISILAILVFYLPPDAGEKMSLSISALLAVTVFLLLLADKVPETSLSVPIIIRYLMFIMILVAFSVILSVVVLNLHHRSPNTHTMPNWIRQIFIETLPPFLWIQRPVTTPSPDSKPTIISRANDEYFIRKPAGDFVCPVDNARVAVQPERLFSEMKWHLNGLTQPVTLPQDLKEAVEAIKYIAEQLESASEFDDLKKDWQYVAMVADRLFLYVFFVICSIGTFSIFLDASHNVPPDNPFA
Sequence of Acetylcholine receptor subunit alpha (Tetronarce californica) + Acetylcholine receptor subunit beta (Tetronarce californica) + Acetylcholine receptor subunit gamma (Tetronarce californica) + Acetylcholine receptor subunit delta (Tetronarce californica) (P02714 whole entry, looked up): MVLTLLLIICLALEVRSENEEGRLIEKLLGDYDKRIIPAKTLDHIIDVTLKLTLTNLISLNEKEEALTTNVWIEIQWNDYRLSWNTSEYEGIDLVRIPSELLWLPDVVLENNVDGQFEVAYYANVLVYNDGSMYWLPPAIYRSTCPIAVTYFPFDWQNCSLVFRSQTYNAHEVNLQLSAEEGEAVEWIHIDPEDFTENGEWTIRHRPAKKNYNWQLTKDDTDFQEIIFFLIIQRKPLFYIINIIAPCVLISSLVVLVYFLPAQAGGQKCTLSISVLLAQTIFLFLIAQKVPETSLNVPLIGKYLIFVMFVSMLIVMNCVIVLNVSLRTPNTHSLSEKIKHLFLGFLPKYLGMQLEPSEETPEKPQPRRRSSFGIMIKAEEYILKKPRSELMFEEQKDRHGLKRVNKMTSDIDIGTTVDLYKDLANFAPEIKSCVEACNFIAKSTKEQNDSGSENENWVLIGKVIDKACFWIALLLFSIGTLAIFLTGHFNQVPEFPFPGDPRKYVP
Sequence of Acetylcholine receptor subunit alpha (Tetronarce californica) + Acetylcholine receptor subunit beta (Tetronarce californica) + Acetylcholine receptor subunit gamma (Tetronarce californica) + Acetylcholine receptor subunit delta (Tetronarce californica) (P02718 whole entry, looked up): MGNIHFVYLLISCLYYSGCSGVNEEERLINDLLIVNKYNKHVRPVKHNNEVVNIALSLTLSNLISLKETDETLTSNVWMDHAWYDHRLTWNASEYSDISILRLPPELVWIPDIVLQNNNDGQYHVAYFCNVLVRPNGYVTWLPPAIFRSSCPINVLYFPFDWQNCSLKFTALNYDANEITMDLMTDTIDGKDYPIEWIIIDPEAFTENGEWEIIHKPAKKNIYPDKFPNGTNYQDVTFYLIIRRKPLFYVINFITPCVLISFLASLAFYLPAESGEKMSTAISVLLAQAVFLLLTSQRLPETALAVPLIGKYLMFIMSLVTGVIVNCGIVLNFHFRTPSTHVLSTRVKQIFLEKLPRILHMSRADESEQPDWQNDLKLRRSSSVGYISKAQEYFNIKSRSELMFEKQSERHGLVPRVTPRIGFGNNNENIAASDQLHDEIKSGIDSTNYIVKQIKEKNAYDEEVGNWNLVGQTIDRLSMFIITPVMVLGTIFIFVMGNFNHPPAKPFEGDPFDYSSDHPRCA
With `NC1=N/C(=C2/CCNC(=O)c3[nH]ccc32)C(=O)N1`, the Ki entry was “inactive”.
On to `C[C@@H](N)[C@H](O)CCCCCCCC(=O)CCCCCCCCCCCCCC[C@@H](O[C@@H]1O[C@H](CO)[C@H](O)[C@H](O)[C@H]1O)[C@@H](C)N`, for which the Ki is 22 µM.
In the case of `CC/C=C/[C@@H]1CC[C@]2(C[C@H]3CC[C@H]4[C@@H](C(=O)OC(CC)CCCCCCCCCCCCC[C@@H]5O[C@](O)(CCN)[C@H](O)N(CCCN)C5=O)[C@@]5(CCC[C@H](C)O5)NC(=[N+]34)N2)O1` (stereo partly specified), the Ki was 8 µM.
Turning to `COc1cc2c3c(ccnc3c1OC)NC=C2`, the Ki was 34 µM.
On to `COn1c(Br)c2c3c(cccc31)[C@H]1C[C@@H](C)CN(C)[C@@H]1C2`, for which the Ki is 44 µM.
`COc1cc(CCN)c2c(c1OC)SSSSS2`: the Ki was 10 µM.
